Experimental data reported in BindingDB's records for doi:10.1016/0960-894X(95)00250-W (1995).

Target: Receptor-type tyrosine-protein phosphatase C (Homo sapiens) (UniProt P08575)
Assay: In vitro inhibitory activity against recombinant CD45 protein tyrosine phosphatase

Sequence of Receptor-type tyrosine-protein phosphatase C (Homo sapiens) (P08575 whole entry, looked up): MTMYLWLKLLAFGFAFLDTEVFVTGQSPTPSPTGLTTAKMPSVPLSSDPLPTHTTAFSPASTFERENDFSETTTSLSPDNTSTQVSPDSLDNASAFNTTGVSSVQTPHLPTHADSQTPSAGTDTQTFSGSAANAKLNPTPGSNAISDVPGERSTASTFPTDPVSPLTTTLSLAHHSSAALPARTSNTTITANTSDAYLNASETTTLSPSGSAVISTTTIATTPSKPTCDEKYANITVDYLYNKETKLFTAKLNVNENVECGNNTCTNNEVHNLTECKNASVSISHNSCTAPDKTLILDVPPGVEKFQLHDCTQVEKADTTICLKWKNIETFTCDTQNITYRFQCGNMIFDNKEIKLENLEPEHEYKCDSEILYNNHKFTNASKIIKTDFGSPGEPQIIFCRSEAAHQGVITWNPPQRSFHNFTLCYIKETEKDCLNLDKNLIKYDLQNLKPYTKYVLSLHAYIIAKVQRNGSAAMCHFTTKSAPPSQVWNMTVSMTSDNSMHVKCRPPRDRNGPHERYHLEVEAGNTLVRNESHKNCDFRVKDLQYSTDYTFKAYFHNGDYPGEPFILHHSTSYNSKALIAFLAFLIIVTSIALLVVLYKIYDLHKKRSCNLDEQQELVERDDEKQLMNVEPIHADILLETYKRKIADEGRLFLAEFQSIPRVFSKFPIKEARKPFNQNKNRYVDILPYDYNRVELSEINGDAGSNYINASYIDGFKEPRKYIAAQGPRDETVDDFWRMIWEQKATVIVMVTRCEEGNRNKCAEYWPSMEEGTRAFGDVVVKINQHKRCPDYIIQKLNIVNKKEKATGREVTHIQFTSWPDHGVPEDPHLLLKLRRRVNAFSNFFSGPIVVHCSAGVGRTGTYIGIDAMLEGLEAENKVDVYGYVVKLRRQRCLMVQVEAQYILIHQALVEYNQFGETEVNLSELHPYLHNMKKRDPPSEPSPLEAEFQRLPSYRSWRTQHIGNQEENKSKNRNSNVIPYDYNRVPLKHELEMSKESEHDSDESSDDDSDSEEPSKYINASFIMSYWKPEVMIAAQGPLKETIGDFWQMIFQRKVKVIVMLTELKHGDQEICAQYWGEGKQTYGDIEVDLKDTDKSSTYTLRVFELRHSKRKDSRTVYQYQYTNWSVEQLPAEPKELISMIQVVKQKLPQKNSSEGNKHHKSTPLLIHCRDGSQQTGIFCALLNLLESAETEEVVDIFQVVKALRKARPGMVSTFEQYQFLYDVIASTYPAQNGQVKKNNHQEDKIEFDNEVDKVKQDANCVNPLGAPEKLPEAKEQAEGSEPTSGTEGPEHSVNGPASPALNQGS

Row | SMILES | IC50 [µM]
1 | COc1cc2c(cc1OC)-c1c(OC)c(OC)cc3c1[C@H](C2)N(C)CC3 | 88
2 | CN1CCc2cc3c(c4c2C1Cc1ccccc1-4)OCO3 (stereo not given) [7-Methyl-6,7,7a,8-tetrahydro-5H-benzo[g][1,3]dioxolo[4',5':4,5]benzo[1,2,3-de]quinoline] | 107
3 | c1ccc2c(c1)C[C@H]1NCCc3cc4c(c-2c31)OCO4 [(-)-anonaine] | 17
4 | COc1cc2c3c(c1OC)-c1ccccc1C[C@@H]3NCC2 [(S)-1,2-Dimethoxy-5,6,6a,7-tetrahydro-4H-dibenzo[de,g]quinoline] | 5.3
5 | O=C1c2ccccc2-c2c3c(cc4ccnc1c24)OCO3 [Liriodenine] | 182
